Assay results from patent EP0277611A2, “Alkyl-substituted N-benzopyranyl lactames, process for their preparation, their use and pharmaceutical preparations on the basis of these compounds” (HOECHST AKTIENGESELLSCHAFT, priority 1987, dated 1988).
Where two headings read alike, the source gives them in different places.

Key:
arteriellen Blutdruck = experiment: Effect on arterial blood pressure in anaesthetised normotensive rats (ED25 from minima of blood pressure curves); assay type: in vivo, männlichen Sprague-Dawley Ratten; details: Rattus norvegicus, anaesthetised (Nembutal 70 mg/kg i.p.) normotensive rats, from minimum of blood pressure curve, read-out: ED₂₅
Method: Der Einfluß der Verbindungen auf den arteriellen Blutdruck wurde an narkotisierten normotensiven männlichen Sprague-Dawley Ratten untersucht. Als Betäubungsmittel wurde Nembutal® in einer Dosis von 70 mg/kg i.p. verwendet. Die Blutdruckmessung erfolgte mittels Katheter in der Arteria carotis mit einem Druckwandler (Statham P 23 Db). Für die i.v. Applikation wurden die Substanzen in Dimethylsulfoxid gelöst und mit Wasser verdünnt. Die Konzentration der Stammlösung war 1mg/ml, wobei die Lösung 15 % Dimethylsulfoxid enthielt. Anteile dieser Stammlösung wurden für die Injektion jeweils frisch mit Wasser verdünnt.
Es kamen Konzentrationen von 50 (100), 30 (30) und 10 (10) µg/ml für die i.v. Applikation, 100 (100), 50 (60) und 30 (30) µg/ml für die i.d. Applikation zur Anwendung. Die angegebenen Zahlen beziehen sich dabei auf das Experiment a), die in Klammern angegebenen Zahlen auf Experiment b).
Die Blutdruckmessung wurde nach 0; 0,2; 0,4; 1; 2; 3; 10; 15 und 30 min. nach der i.v. Applikation sowie nach 0; 1; 3; 5; 10; 15; 20; 30; 40; 50 und 60 min. nach der i.d. Applikation vorgenommen. Die ED₂₅ Werte wurden aus dem Minima der jeweiligen Blutdruckkurven bestimmt. • a) (±)-(3R*, 4S*, 5ʹS*)-6-Cyano-3,4-dihydro-2,2-dimethyl-4-(2ʹ-oxo-5ʹ-methyl-1ʹ-pyrrolidinyl)-2H-benzo[b]pyran-3-ol (Verbindung aus Beispiel 1): ED₂₅= 19 µg/kg (i.v.) ED₂₅=42 µg/kg (i.d.) • b) (±)-6-Cyano-3,4-dihydro-2,2-dimethyl-trans-4-(2-oxo-1-pyrrolidinyl-2H-benzo[b]pyran-3-ol (Beispiel aus J. Med. Chem. 1986, 29, 2194-2201) ED₂₅= 42 µg/kg (i.v.) ED₂₅= 82 µg/kg (i.d.)

Meerschweinchen-Ureteren = experiment: Influence on KCl-induced rhythmic contractions of isolated guinea pig ureters in vitro; assay type: cell-based; details: 10⁻⁷ mol/l test substance, KCl 4 x 10⁻² mol/l, mean ± SEM; for inhibition at 0.1 µM: Cavia porcellus
Text: Beeinflussung der KCl-induzierten rhythmischen Kontraktionen an Meerschweinchen-Ureteren in vitro
Männliche Meerschweinchen wurden durch Nackenschlag und Entbluten aus den Carotiden getötet. Die beiden Ureteren wurden sofort entnommen, wobei der Bereich nahe dem Nierenkelch wegen der dort vorhandenen Schrittmacher-Aktivität gemieden wurde. 2 cm lange Stücke wurden zunächst in einer Petrischale, die Tyrode-Lösung enthielt, von Bindegewebe befreit und dann jeweils mit einer Vorspannung von 4,9 mN (=0,5 p) in ein 25 ml-Organbad (Fa. Rhema Labortechnik, Hofheim) gehängt. Das Organbad enthielt eine auf 37° gehaltene und mit Carbogen (95 % O₂, 5 % CO₂) durchperlte Tyrodelösung mit folgender Zusammensetzung (mmol/l): NaCl 137, KCl 2,68, MgSO₄ 1,05, CaCl₂ 1,8, NaH₂PO₄ 0,41, NaHCO₃ 11,9, Glucose 5,55. Die Kontraktionen wurden isometrisch gemessen unter Verwendung von Gould/Statham UC2 Gebern. Nach einer Äquiilibrierungszeit von mindestens 15 Minuten wurde KCl in das Organbad zugegeben, wobei eine Konzentration von 4 x 10⁻² mol/l erreicht wurde. Der Agonist wurde 2 Minuten im Bad belassen, wobei phasische Kontraktionen auftraten, ohne einen nennenswerten Anstieg der Grundspannung zu bewirken.
Danach wurde 1 Minute ausgespült, woraufhin die rhythmischen Kontraktionen sofort aufhörten. Nach einem zweiten Durchgang von Agonistgabe und Spülvorgang wurde die Prüfsubstanz (Benzopyran-Derivat) in das Organbad zugegeben (in Form einer Lösung in 0,1 ml Ethanol, die Endkonzentrationen betrugen in allen Fällen 10⁻⁷ mol/l) und eine Einwirkungszeit von einer Minute abgewartet, bevor KCl zugesetzt wurde. An den folgenden Spülvorgang schlossen sich zwei abschließende Agonistgabe/Spülgänge an. Von den jeweils zweiminütigen Perioden unter KCl-Einwirkung wurden folgende Parameter bestimmt: 1. mittlere Kontraktionskraft, 2. Frequenz der Kontraktionen und 3. Produkt aus mittlerer Kontraktionskraft und Frequenz. Ausschlußkriterien waren mittlere Kontraktionskräfte unter 4 mN oder Frequenzen unter 2/min bei mehr als einer der vier Perioden, bei denen nur der Agonist KCl im Bad vorhanden war. Ausgewertet wurde die prozentuale Hemmung unter Prüfsubstanz im Vergleich zum gemittelten Wert aus den beiden Vorläufen.
Neben dem arithmetischen Mittelwert (x) wurde der Standardfehler des Mittelwerts (SEM) errechnet.

[1] = percent inhibition of product of mean contraction force and frequency, read-out: k·v [%]
[2] = percent inhibition vs mean of the two pre-runs, read-out: Frequenz v [%]
[3] = percent inhibition vs mean of the two pre-runs, read-out: mittlere Kontraktionskraft k [%]
[4] = percent inhibition vs mean of the two pre-runs, 0.1 µM

Structure (SMILES) | ED25 (arteriellen Blutdruck; iv) [mg/kg] | ED25 (arteriellen Blutdruck; i.d.) [mg/kg] | inhibition at 0.1 µM (Meerschweinchen-Ureteren; [1]) [%] | inhibition at 0.1 µM (Meerschweinchen-Ureteren; [2]) [%] | inhibition at 0.1 µM (Meerschweinchen-Ureteren; [3]) [%] | k·v [%] (Meerschweinchen-Ureteren; percent inhibition of product of mean contraction force and frequency, 0.1 µM) | Frequenz v [%] (Meerschweinchen-Ureteren; [4]) | mittlere Kontraktionskraft k [%] (Meerschweinchen-Ureteren; [4])
C[C@H]1CCC(=O)N1[C@H]1c2cc(C#N)ccc2OC(C)(C)[C@@H]1O (racemic) [(3R*, 4S*, 5ʹS*)-6-Cyano-3,4-dihydro-2,2-dimethyl-4-[2ʹ-oxo-5ʹ-methyl-1ʹ-pyrrolidinyl]-2H-benzo[b]pyran-3-ol] | 0.019 | 0.042 |  |  |  |  |  | 
CC1(C)Oc2ccc(C#N)cc2C(N2CCCC2=O)C1O (racemic) [(±)-6-Cyano-3,4-dihydro-2,2-dimethyl-trans-4-(2-oxo-1-pyrrolidinyl-2H-benzo[b]pyran-3-ol, reference compound] | 0.042 | 0.082 | 61 ± 7 | 58 ± 5 | 8 ± 8 |  |  | 
C[C@@H]1CCC(=O)N1[C@H]1c2cc(C#N)ccc2OC(C)(C)[C@@H]1O (racemic) [±)-(3R^*,4S^*,5'R^*)-6-Cyano-3,4-dihydro-2,2-dimethyl-4-(2'-] [(3R*, 4S*, 5ʹR*)-6-Cyano-3,4-dihydro-2,2-dimethyl-4-[2ʹ-oxo-5ʹ-methyl-1ʹ-pyrrolidinyl)-2H-benzo[b]pyran-3-ol] |  |  |  |  |  | 96 ± 1 | 86 ± 4 | 69 ± 11
C[C@@H]1CCC(=O)N1[C@H]1c2cc(C#N)ccc2OC(C)(C)[C@@H]1O [(-)-(3R, 4S, 5ʹR)-6-Cyano-3,4-dihydro-2,2-dimethyl-4-(2ʹ-oxo-5ʹ-methyl-1ʹ-pyrrolidinyl)-2H-benzo[b]pyran-3-ol] |  |  | 96 ± 2 | 89 ± 4 | 75 ± 8 |  |  | 
